Measurements taken from patent US8207223B2, “Pharmaceutical composition for treatment of diseases associated with decrease in bone mass comprising EP4 agonist as active ingredient” (Ono Pharmaceutical Co., Ltd., priority 2001, dated 2012).
One block for each molecule: values may come before it.

Tests used:
[1] = system: collagen-induced arthritis; assay: Arthritis induced by collagen in rats; assay type: in vivo, female DA/Slc rat; settings: limbs scored at 27 days, full score 30, *p < 0.05
Description: (iv) Inhibitive Effect for Chronic Articular Rheumatism
(1) Arthritis Induced by Collagen in Rats
Experiment was performed according to the method of Osterman et al. (Inflamm. Res., 44, 258-263). An inducing agent (an emulsion prepared by adding an equal volume of physiological saline and 2 equivalent volume of incomplete Freund adjuvant to 0.3% solution of type II collagen of bovine origin) 0.1 ml each was applied intracutaneously to the 4 sites of the back of a female DA/Slc rat. After a lapse of 1 week, the same inducing agent was further applied intracutaneously to the tail root to induce arthritis. At 27 days the limbs were scored responding to the degree of redness and edema and assessed as 30 was regarded as full scores. The compound of the invention was dissolved in an equimolar amount of 0.02 mole/L sodium hydroxide solution, diluted with distilled water, and orally given 3 times a day from the next day of the first administration of inducer.

fibula bone fracture = assay: Effect of accelerating cure of bone fracture (rat fibula fracture model; callus bone density and three-point bending strength); assay type: in vivo, male IGS rats; settings: 50 ng/kg/min intravenously for 2 hours twice a day for 21 days
Description: (ix) Effect of Accelerating Cure of Bone Fracture
According to the methods of R. Sakai (Bone, 25, 191-196 (1999)), H. Kawaguchi (Endocrinology, 135, 774-781 (1994)) and T. Hoshino (J. Biomed Mater Res., 51, 229-306 (2000)), a bone fracture model was prepared with male IGS rats of 8 weeks of age. Hair of the left hind-limb of a rat was cut under anesthetization with pentobarbital Na, and Viccillin S 500 (500 mg potency) (Meiji Seika) was intramuscularly injected at a dose of 10 mg potency/100 μl distilled water/body. Then, the skin on the fibula (from the back of knee joint to tendo Achillis) was incised to ablate the muscular tissue and expose the fibula. […] The recovered fibulae were taken radiographs to assess development of the cure of fracture based on the presence of a fracture line and callus formation, and the density and strength of the bone around the fracture portion were measured. […]
The bone density of the callus region at the fracture position of the recovered fibula was measured referring to the reports of C. […] During photographing, a phantom for quantitative analysis of bone salt for mice (Kyoto Kagaku Co.) was set together in order to make an analytical curve for measurement of bone density. The image was read by a Bio-imaging Analyzer BAS-1800 (FUJIFILM)/Image Reader (FUJIFILM) and processed with an Image Gauge, ver.3.1.12 (FUJIFILM). […]

murine EP4 = biological target: T1, murine EP4 (Mus musculus, UniProt P32240); assay: Receptor-binding experiment (3H-PGE2 binding inhibition) using membranes of CHO cells expressing prostanoid receptor sub-types; settings: binding to EP4 receptor, CHO cell membranes, read-out: Dissociation Constant Ki
T1 construct: expressed in transfected cells; host or cells: CHO cells (membrane fraction)
Description: (i) Experiment for receptor-binding using cells which express prostanoid receptor sub-types
According to the method of Sugimoto et al. (J. Biol. Chem., 267, 6463-6466 (1992)), CHO cells which expressed prostanoid receptor sub-types (murine EP1, EP2, EP3α, and EP4, respectively) were prepared and used as membrane authentic samples.
A reaction solution (200 μl) containing the prepared membrane fraction (0.5 mg/ml) and ^3H-PGE2 was incubated at room temperature for 1 hour. The reaction was terminated with ice cold buffer (3 ml), and the reaction mixture was filtered under suction through a glass filter (GF/B), on which the binding ^3H-PGE2 was trapped, and the binding radioactivity was measured by means of a liquid scintillator.
The Kd value was obtained from the Acatchard plots [Ann. N.Y. Acad. Sci., 51, 660 (1949)]. Non-specific binding was obtained as the binding in the presence of an excess amount (2.5 μM) of unlabelled PGE2. Measurement of the binding inhibition for ^3H-PGE2 with the compounds of the invention was performed by adding ^3H-PGE2 (2.5 nM) and a series of concentrations of the compound of the invention. In this reaction, the following buffer was used in all cases. • Buffer: 10 mM potassium phosphate (pH 6.9), 1 mM EDTA, 10 mM MgCl2, and 0.1M NaCl.
Dissociation constant Ki (μM) of each compound was calculated from the following equation. Ki=IC50/(1+([C]/Kd))

T1 sequence (P32240 whole entry): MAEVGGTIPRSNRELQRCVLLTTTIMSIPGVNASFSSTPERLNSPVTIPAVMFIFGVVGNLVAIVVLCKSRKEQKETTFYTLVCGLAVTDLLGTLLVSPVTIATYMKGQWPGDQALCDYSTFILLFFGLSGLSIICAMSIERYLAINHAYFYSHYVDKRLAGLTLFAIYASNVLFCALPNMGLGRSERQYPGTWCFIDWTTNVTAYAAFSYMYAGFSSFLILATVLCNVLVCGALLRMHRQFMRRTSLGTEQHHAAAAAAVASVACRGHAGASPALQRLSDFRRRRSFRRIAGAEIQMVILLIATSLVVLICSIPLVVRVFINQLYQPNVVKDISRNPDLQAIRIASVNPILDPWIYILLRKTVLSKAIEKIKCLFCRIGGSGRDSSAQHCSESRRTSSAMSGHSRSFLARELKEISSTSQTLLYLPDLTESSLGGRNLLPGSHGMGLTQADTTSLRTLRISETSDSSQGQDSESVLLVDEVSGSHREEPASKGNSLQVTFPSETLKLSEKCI

SMILES: O=C(O)CCCSCCN1C(=O)CC[C@@H]1/C=C/[C@@H](O)Cc1cccc(Cl)c1 [Example 3 (b), (15α,13E)-9-Oxo-15-hydroxy-16-(3-chlorophenyl)-17,18,19,20-tetranor-5-thia-8-azaprost-13-enoic acid]
- Arthritic Score (Means ± SE) ([1]; 300 μg/kg orally 3 times a day): 19.3 ± 1.4*

SMILES: COCc1cccc(C[C@H](O)/C=C/[C@H]2[C@H](O)CC(=O)[C@@H]2CCSCCCC(=O)OC)c1 [Compound (1), (11α,15α,13E)-9-Oxo-11,15-dihydroxy-16-(3-methoxymethylphenyl)-17,18,19,20-tetranor-5-thiaprost-13-enoic acid methyl ester]
- Bone Density (fibula bone fracture; callus region): 42.8 ± 2.58 mg/cm^2
- Fracture Strength (fibula bone fracture; three-point bending test): 30.4 ± 12.4% of intact

- Ki (murine EP4): 0.71 nM
SMILES: CCCc1cccc(C[C@H](O)/C=C/[C@H]2CCC(=O)N2CCSCCCC(=O)O)c1 [Example 3(e), (15α,13E)-9-Oxo-15-hydroxy-16-(3-propylphenyl)-17,18,19,20-tetranor-5-thia-8-azaprost-13-enoic acid]

SMILES: Cc1ccc(C[C@H](O)/C=C/[C@H]2CCC(=O)N2CCSCCCC(=O)O)o1 [Example 3 (kk), (15α,13E)-9-Oxo-5-hydroxy-16-(5-methylfuran-2-yl)-17,18,19,20-tetranor-5-thia-8-azaprost-13-enoic acid]
- Arthritic Score (Means ± SE) ([1]; 100 μg/kg orally 3 times a day): 11.9 ± 3.6*

SMILES: O=C1CC[C@H](/C=C/[C@@H](O)Cc2ccc(F)cc2)N1CCSCCCCO [Example 4 (h), (15α,13E)-9-Oxo-15-hydroxy-16-(4-fluorophenyl)-17,18,19,20-tetranor-5-thia-8-azaprost-13-en-1-ol]
- Arthritic Score (Means ± SE) ([1]; 300 μg/kg orally 3 times a day): 9.8 ± 1.9*

- Ki (murine EP4): 0.24 nM
SMILES: O=C(O)CCCCCCN1C(=O)CC[C@@H]1/C=C/[C@@H](O)Cc1cccc(C#Cc2ccccc2)c1 [Example 2(pp), (15α,13E)-9-Oxo-15-hydroxy-16-(3-(2-phenylethynyl)phenyl)-17,18,19,20-tetranor-8-azaprost-13-enoic acid]

SMILES: O=C(O)CCCSCCN1C(=O)CC[C@@H]1/C=C/[C@@H](O)Cc1ccc(F)cc1 [Example 3 (l), (15α,13E)-9-Oxo-15-hydroxy-16-(4-fluorophenyl)-17,18,19,20-tetranor-5-thia-8-azaprost-13-enoic acid]
- Arthritic Score (Means ± SE) ([1]; 100 μg/kg orally 3 times a day): 16.3 ± 3.0*
